According to patent publication US7157453B2, “Urea substituted imidazoquinolines” (3M Innovation Properties Company, priority 1999, dated 2007):

Legend:
[1] = tested on: tumor necrosis factor (α); test: Cytokine Induction in Human Cells: tumor necrosis factor (α) by ELISA; assay type: cell-based; settings: PBMC; human PBMCs, incubated 18 to 24 hours, lowest concentration found to induce tumor necrosis factor
In short: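 Healthy-donor PBMCs (1.5–2×10^6 cells/mL final, RPMI with 10% FBS) incubated 18–24 h at 37 °C with compound in three- or ten-fold serial dilutions, DMSO ≤1% final. Supernatant TNF measured by ELISA; value is lowest concentration inducing TNF.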

interferon (α) = test: Cytokine Induction in Human Cells: interferon (α) by ELISA; assay type: cell-based; settings: PBMC; human PBMCs, incubated 18 to 24 hours, lowest concentration found to induce interferon
In short: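 Healthy-donor human PBMCs (1.5–2×10^6 cells/mL final, RPMI with 10% FBS) exposed to serially diluted compound (≤1% DMSO) for 18–24 h at 37 °C, 5% CO2. Supernatant IFN-α measured by ELISA; value reported is lowest concentration inducing interferon.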

melting point | SMILES | minimal effective concentration [1] | minimal effective concentration (interferon (α))
112 to 115 °C | Cc1nc2c(N)nc3ccccc3c2n1CCCNC(=O)OC(C)(C)C [Example 176, tert-butyl 3-(4-amino-2-methyl-1H-imidazo[4,5-c]quinolin-1-yl)propylcarbamate] | 1.11 µM | 0.12 µM
201 to 202 °C | CCOCc1nc2c(N)nc3ccccc3c2n1CCNC(=O)OC(C)(C)C [Example 177, tert-butyl 2-[4-amino-2-(ethoxymethyl)-1H-imidazo[4,5-c]quinolin-1-yl]ethylcarbamate] | 0.37 µM | 0.04 µM
173 to 175 °C | COCCc1nc2c(N)nc3ccccc3c2n1CCNC(=O)OC(C)(C)C [Example 178, tert-butyl 2-[4-amino-2-(methoxyethyl)-1H-imidazo[4,5-c]quinolin-1-yl]ethylcarbamate] | 1.11 µM | 0.12 µM
